Reference: paper PMC7087482 (Journal of medicinal chemistry, 2020)
“Also recorded” adds a separate entry of the source.

Legend:
CYP3A5 [1] = molecular target: T1, CYP3A5 (Homo sapiens, UniProt P20815); experiment: CYP3A5 activity in AsPC-1 cells by 1-hydroxymidazolam formation; type: cell-based; conditions: 5 μM midazolam, 24 h
CYP3A4 [2] = molecular target: T2, CYP3A4 (Homo sapiens, UniProt P08684); experiment: P450-Glo luminescence biochemical inhibition assay; conditions: compound at 1.8 μM, DMSO 0.1%
[3] = system: CYP1A2, 2B6, 2C8, 2C9, 2C19, and 2D6; experiment: Cytochrome P450 inhibition panel in pooled human liver microsomes; type: biochemical; conditions: 1.8 μM clobetasol, own probe substrate per CYP
CYP3A4 [4] = molecular target: T2, CYP3A4; experiment: CW X-band EPR spectroscopy of CYP3A4-ligand complexes; conditions: CYP 200 μM, compound 400 μM, 10 K
CYP3A4 [5] = molecular target: T2, CYP3A4; experiment: Cytochrome P450 inhibition panel in pooled human liver microsomes; type: biochemical; conditions: 1.8 μM clobetasol
CYP3A5 [6] = molecular target: T1, CYP3A5; experiment: CW X-band EPR spectroscopy of CYP3A5-ligand complexes; conditions: CYP 200 μM, compound 400 μM, 10 K
CYP3A4 [7] = experiment: Western blot of CYP3A4 protein level after compound treatment; conditions: 1 μM compound, 24 h treatment
CYP3A5 [8] = molecular target: T1, CYP3A5; experiment: UV-visible absorbance titration with purified recombinant CYP3A5; conditions: UV-visible Soret band shift

| Compound | Inhibition of CYP3A5 activity (1OH-MDZ formation) (CYP3A5 [1]; CYP3A5 overexpressed (+Dox) in WT or 3A5-/- AsPC-1 cells) | Inhibition of CYP3A5 activity (1OH-MDZ formation) compared with ketoconazole (CYP3A5 [1]; parental AsPC-1 (WT) cells, dose-response) | Inhibition of CYP3A4 (CYP3A4 [2]) | Inhibition of other major human CYPs [3] | Heme iron spin state of CYP3A4 complex (EPR) (CYP3A4 [4]) | Inhibition of CYP3A4-mediated catalysis, substrate midazolam (CYP3A4 [5]) | Inhibition of CYP3A4-mediated catalysis, substrate testosterone (CYP3A4 [5]) | Heme iron spin state of CYP3A5 complex (EPR) (CYP3A5 [6]) | Effect on CYP3A4 protein level (Western blot) (CYP3A4 [7]) | Spectral shift type on titration with CYP3A5 (CYP3A5 [8]) |
| --- | --- | --- | --- | --- | --- | --- | --- | --- | --- | --- |
| CCC(=O)O[C@]1(C(=O)CCl)[C@@H](C)C[C@H]2[C@@H]3CCC4=CC(=O)C=C[C@]4(C)[C@@]3(F)[C@@H](O)C[C@@]21C [clobetasol, Clobetasol propionate] | inhibited the CYP3A5 activity | slightly more potent | no inhibition | little or no inhibition; also recorded: no significant inhibition | no new HS formation | uninhibited | uninhibited | five-coordinate HS ferric heme iron state | did not increase the protein level of CYP3A4 | – |
| Cc1ncc2n1-c1ccc(Cl)cc1C(c1ccccc1F)=NC2 [midazolam, Midazolam] | – | – | – | – | an HS signal was induced | – | – | five-coordinate HS ferric heme iron state | – | typical type I CYP spectral shift |
| CC(=O)N1CCN(c2ccc(OCC3COC(Cn4ccnc4)(c4ccc(Cl)cc4Cl)O3)cc2)CC1 (stereo not shown) [ketoconazole, Ketoconazole] | – | – | – | – | – | – | – | – | increased CYP3A4 protein expression | – |
